Assay results as given in patent US20200061062A1, “INHIBITORS OF HUMAN PHOSPHATIDYLINOSITOL 3-KINASE DELTA” (ICOS Corporation, priority 2000, published 2020).
Where two headings read alike, the source gives them in different places.

Tests used:
[1] = molecular target: T1, PI3Kβ (Homo sapiens, UniProt P42338); assay: Biochemical assay of PI3K potency and selectivity using 20 μM ATP, Beta; settings: 20 μM ATP; for Beta/Delta Ratio: ratio of IC50 values, > = hypothetical ratio with 100 μM substituted for the missing IC50; for IC50: read-out: Beta IC50; for remaining activity at 100 µM: read-out: Beta: percent activity remaining at 100 μM, 100 μM compound did not inhibit by at least 50%
T1 construct: His tag (pFastbac HTa vector) (N); FLAG (N); made in house; host or cells: Sf21 insect cells (baculovirus)
Protocol: (§1) Recombinant PI3K heterodimeric complexes consisting of a p110 catalytic subunit and a p85 regulatory subunit were overexpressed using the BAC-TO-BAC® HT baculovirus expression system (GIBCO/BRL), and then purified for use in biochemical assays. The four Class I PI 3-kinases were cloned into baculovirus vectors as follows:
The 3× substrate for the HTS contained 0.6 mM Na2ATP, 0.10 mCi/mL γ-[^32P]ATP (NEN, Pittsburgh, Pa.), 6 μM PIP2/PS liposomes (Avanti Polar Lipids, Inc., […].), in 20 mM HEPES, pH 7.4.

[2] = molecular target: PI3Kδ (Homo sapiens, UniProt O00329, S253N); assay: Biochemical assay of PI3K potency and selectivity using 20 μM ATP, Delta; parameters: His tag (pFastbac HTb vector) (N); FLAG; made in house; host or cells: Sf21 insect cells (baculovirus); settings: 20 μM ATP; read-out: Delta IC50
Description: as §1, with “follows: […]” for “follows:”

[3] = tested on: Murine splenocytes (Balb/c); assay: B cell proliferation in response to cell surface IgM stimulation; format: cell-based; settings: Mus musculus, Splenocyte; stimulated B cell proliferation; read-out: Mouse BCR Stim (EC50)
Protocol: In the above experiment, the B cells were stimulated using PANSORBIN®. The effect of D-000 on B cell proliferation response when they were stimulated through their cell surface IgM using anti-IgM antibody also was measured. Murine splenocytes (Balb/c) were plated into 96-well microtiter plates at 2×10^5 cells per well in 10% FBS/RPMI. Appropriate dilutions of test inhibitor in complete medium were added to the cells and the plates were incubated for 30-60 minutes prior to the addition of stimulus. Following the preincubation with test inhibitor an F(ab′)2 preparation of goat antibody specific for the μ-chain of mouse IgM was added to the wells at a final concentration of 25 μg/mL. The plates were incubated at 37° C. for 3 days and 1 μCi of [^3H]-thymidine was added to each well for the final four hours of culture. The plates were harvested onto fiber filters washed and the incorporation of radiolabel was determined using a beta counter (Matrix 96, Packard Instrument Co., Downers Grove, Ill.) and expressed as counts per minute (CPM).
Using the methods described in Examples 3-5, above, compounds of the invention were tested for inhibitory activity and potency in assays of stimulated B and T cell proliferation, neutrophil (PMN) migration, and neutrophil (PMN) elastase release. In Table 4, the values shown are effective concentrations of the compound (EC50; μM). Where no value is given, no assay was performed.

[4] = molecular target: T2, PI3Kα (Homo sapiens, UniProt P42336); assay: Biochemical assay of PI3K potency and selectivity using 20 μM ATP, Alpha; settings: for Alpha/Delta Ratio: ratio of IC50 values, > = hypothetical ratio with 100 μM substituted for the missing IC50; for IC50: read-out: Alpha IC50
T2 construct: His tag (pFastbac HTb vector) (N); FLAG; made in house; host or cells: Sf21 insect cells (baculovirus)
Description: as §1, with “follows: […]” for “follows:”

[5] = read-out: percent activity remaining at 100 μM, 20 μM ATP, 100 μM compound did not inhibit by at least 50%

T2 sequence (P42336 whole entry): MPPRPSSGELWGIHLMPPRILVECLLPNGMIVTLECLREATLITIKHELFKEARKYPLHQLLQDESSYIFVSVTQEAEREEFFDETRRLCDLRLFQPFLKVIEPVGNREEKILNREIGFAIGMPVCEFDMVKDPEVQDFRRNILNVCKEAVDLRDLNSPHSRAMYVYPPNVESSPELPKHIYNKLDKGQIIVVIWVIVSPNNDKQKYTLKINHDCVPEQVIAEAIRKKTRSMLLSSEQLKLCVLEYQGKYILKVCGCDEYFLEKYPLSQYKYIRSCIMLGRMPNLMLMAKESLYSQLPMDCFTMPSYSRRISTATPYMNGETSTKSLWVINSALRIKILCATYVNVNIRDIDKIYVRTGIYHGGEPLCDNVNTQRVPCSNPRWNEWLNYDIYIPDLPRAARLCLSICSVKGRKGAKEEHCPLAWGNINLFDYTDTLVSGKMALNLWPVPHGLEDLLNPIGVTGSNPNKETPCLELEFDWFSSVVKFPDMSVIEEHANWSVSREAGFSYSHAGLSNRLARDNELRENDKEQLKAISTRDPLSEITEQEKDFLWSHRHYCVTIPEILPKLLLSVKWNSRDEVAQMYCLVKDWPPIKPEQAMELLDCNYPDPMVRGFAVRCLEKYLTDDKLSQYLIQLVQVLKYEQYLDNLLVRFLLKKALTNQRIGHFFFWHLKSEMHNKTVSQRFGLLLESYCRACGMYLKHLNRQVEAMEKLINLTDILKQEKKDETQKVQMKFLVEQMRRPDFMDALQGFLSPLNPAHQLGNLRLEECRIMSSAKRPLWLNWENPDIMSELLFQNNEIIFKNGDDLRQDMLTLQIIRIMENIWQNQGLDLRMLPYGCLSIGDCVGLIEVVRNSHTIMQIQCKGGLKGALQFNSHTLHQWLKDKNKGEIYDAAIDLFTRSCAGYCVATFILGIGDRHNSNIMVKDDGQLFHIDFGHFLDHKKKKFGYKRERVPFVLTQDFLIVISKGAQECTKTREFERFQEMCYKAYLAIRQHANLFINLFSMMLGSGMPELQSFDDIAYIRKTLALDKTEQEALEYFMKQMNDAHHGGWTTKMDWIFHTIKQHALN
T2 sequence (P27986 whole entry partner): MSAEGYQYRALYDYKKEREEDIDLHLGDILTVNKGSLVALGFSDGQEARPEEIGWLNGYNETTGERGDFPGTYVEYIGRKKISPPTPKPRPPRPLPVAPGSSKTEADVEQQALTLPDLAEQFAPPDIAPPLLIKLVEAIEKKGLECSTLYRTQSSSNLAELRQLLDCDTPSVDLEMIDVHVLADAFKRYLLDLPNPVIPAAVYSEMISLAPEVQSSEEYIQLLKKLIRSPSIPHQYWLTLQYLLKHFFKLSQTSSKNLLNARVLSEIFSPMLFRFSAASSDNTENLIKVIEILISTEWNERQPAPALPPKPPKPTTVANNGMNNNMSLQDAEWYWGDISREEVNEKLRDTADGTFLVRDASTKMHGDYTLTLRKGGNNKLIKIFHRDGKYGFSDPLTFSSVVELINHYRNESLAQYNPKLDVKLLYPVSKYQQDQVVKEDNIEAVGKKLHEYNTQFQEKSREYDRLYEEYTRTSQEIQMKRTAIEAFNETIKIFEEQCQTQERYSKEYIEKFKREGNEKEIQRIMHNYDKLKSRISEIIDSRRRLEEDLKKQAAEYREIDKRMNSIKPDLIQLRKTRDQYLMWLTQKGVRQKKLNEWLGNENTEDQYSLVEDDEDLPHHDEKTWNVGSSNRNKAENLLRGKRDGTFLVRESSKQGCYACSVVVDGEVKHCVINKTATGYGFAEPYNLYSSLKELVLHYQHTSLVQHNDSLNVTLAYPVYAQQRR
Sequence of PI3Kδ (O00329 whole entry S253N): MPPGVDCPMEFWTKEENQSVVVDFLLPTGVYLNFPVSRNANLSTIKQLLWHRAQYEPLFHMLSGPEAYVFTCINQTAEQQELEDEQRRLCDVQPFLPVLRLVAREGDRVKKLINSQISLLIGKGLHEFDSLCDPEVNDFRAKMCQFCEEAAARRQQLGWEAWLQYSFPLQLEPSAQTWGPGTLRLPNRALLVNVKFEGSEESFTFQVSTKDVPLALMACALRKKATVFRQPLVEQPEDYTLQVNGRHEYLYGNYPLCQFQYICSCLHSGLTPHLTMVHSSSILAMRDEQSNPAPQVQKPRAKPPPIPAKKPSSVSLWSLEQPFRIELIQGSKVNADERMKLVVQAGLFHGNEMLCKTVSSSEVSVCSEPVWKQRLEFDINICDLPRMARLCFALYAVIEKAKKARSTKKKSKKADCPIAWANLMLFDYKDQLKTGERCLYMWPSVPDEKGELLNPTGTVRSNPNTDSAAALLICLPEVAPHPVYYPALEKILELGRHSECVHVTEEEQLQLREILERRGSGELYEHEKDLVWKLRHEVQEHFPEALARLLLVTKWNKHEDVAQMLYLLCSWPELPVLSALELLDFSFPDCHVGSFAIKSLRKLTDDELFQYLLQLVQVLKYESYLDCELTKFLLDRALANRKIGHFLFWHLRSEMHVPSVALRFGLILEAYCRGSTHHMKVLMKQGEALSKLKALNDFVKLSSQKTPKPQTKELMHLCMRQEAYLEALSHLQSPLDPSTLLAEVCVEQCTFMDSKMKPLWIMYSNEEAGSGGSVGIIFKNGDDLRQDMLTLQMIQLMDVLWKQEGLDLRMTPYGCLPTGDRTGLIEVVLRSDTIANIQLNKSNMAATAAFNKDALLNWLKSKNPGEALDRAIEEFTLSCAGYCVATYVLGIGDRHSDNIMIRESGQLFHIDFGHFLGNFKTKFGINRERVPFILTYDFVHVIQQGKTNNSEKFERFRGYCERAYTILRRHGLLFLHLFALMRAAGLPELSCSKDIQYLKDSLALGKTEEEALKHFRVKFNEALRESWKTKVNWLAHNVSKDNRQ
Sequence of PI3Kδ (P27986 whole entry partner): as the sequence (P27986 whole entry partner) above
T1 sequence (P42338 whole entry): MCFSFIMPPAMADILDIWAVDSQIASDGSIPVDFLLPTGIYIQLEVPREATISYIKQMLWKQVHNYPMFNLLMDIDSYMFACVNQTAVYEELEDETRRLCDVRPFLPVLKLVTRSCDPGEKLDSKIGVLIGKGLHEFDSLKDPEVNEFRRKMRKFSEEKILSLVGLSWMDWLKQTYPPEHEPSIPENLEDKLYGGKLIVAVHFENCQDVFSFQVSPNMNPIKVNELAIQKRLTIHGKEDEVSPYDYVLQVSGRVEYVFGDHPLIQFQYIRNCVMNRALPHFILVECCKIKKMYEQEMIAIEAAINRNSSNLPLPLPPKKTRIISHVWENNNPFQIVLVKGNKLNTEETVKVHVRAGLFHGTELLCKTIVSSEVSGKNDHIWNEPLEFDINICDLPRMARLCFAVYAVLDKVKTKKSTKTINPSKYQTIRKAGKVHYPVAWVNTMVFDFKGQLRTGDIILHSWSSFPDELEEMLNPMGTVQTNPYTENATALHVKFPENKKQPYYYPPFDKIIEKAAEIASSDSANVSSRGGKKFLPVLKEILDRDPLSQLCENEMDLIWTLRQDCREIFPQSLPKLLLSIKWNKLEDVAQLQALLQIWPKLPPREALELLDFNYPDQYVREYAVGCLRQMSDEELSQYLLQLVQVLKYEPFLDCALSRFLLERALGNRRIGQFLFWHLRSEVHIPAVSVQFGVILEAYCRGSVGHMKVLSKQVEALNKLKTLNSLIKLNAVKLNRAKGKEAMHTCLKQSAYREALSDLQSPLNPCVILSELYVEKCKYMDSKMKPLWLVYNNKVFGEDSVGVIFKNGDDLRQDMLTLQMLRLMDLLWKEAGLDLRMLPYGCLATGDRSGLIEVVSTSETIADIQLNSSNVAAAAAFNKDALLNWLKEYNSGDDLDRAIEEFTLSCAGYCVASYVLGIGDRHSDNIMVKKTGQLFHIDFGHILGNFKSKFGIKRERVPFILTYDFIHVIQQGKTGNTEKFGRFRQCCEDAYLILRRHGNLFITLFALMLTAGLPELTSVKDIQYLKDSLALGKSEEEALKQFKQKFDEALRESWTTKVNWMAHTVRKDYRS
T1 sequence (P27986 whole entry partner): as the sequence (P27986 whole entry partner) above

| SMILES | Beta/Delta Ratio [1] | IC50 [1] [µM] | melting point | IC50 [2] [µM] | EC50 [3] [µM] | Alpha/Delta Ratio ([4]; 20 μM ATP) | remaining activity at 100 µM [4, 5] [%] | remaining activity at 100 µM [1] [%] | remaining activity at 100 µM ([4]; read-out: percent activity remaining at 100 μM) [%] | IC50 ([4]; 20 μM ATP) [µM] | Alpha IC50 column: percent activity remaining at 100 μM ([4]; 20 μM ATP, 100 μM compound did not inhibit by at least 50%, 100 µM) [%] |
| --- | --- | --- | --- | --- | --- | --- | --- | --- | --- | --- | --- |
| Nc1ncnc2c1ncn2Cc1nc2c(Cl)cccc2c(=O)n1-c1ccccc1Cl [Compound D-008, 2-(6-Aminopurin-9-ylmethyl)-8-chloro-3-(2-chlorophenyl)-3H-quinazolin-4-one] | 57 | 68 | 273.3 to 273.5 °C | 1.2 | 1 | >85 | 82 | – | – | – | – |
| CC(=O)O.Nc1ncnc2c1ncn2Cc1nc2ccccc2c(=O)n1N1CCOCC1 [Compound D-051, 2-(6-aminopurin-9-ylmethyl)-3-morpholin-4-yl-3H-quinazolin-4-one, acetate salt] | >31 | – | – | 3.3 | – | >31 | – | 57 | 89 | – | – |
| O=c1c2ccccc2nc(CSc2ncnc3[nH]cnc23)n1-c1ccc(Cl)cc1 [Compound D-052, 3-(4-chlorophenyl)-2-(9H-purin-6-ylsulfanylmethyl)-3H-quinazolin-4-one] | >13 | – | – | 8 | – | 0.09 | – | 69 | – | 0.7 | – |
| Nc1ncnc2c1ncn2Cc1nc2ccc(Cl)cc2c(=O)n1-c1ccccc1Cl [Compound D-004, 2-(6-Aminopurin-9-ylmethyl)-6-chloro-3-(2-chlorophenyl)-3H-quinazolin-4-one] | >1.6 | – | 294.5 to 294.8 °C (dec.) | 64 | – | >2 | 93 | 89 | – | – | – |
| O=c1c2ccc([N+](=O)[O-])cc2nc(CSc2ncnc3[nH]cnc23)n1-c1ccccc1Cl [Compound D-023, 3-(2-Chlorophenyl)-7-nitro-2-(9H-purin-6-ylsulfanylmethyl)-3H-quinazolin-4-one] | >3.9 | – | 218 to 218.3 °C (dec.) | 26 | – | >4 | 83 | 91 | – | – | – |
| Cc1ccccc1-n1c(Cn2cnc3c(N)ncnc32)nc2cccc(Cl)c2c1=O | – | – | 262 to 266.5 °C | – | – | – | – | – | – | – | – |
| CCCCn1c(Cn2cnc3c(N)ncnc32)nc2ccccc2c1=O [Compound D-050, 2-(6-aminopurin-9-ylmethyl)-3-butyl-3H-quinazolin-4-one] | 26 | 41 | – | 1.6 | – | >63 | 99 | – | – | – | – |
| O=c1c2cc(Br)ccc2nc(CSc2ncnc3[nH]cnc23)n1-c1ccccc1Cl [Compound D-017, 6-Bromo-3-(2-chlorophenyl)-2-(9H-purin-6-ylsulfanylmethyl)-3H-quinazolin-4-one] | >8 | – | 212 to 242 °C (dec.) | 12 | – | >8 | 89 | 108 | – | – | – |
| Nc1ncnc2c1ncn2Cc1nc2ccc(Br)cc2c(=O)n1-c1ccccc1Cl [Compound D-002, 2-(6-Aminopurin-o-ylmethyl)-6-bromo-3-(2-chlorophenyl)-3H-quinazolin-4-one] | >2.3 | – | 284.2 to 284.7 °C (dec.) | 44 | – | >2.3 | 88 | 78 | – | – | – |
| COc1cc2nc(Cn3cnc4c(N)ncnc43)n(-c3ccccc3Cl)c(=O)c2cc1OC [Compound D-001, 2-(6-Aminopurin-9-ylmethyl)-3-(2-chlorophenyl)-6,7-dimethoxy-3H-quinazolin-4-one] | 0.66 | 45 | 281.5 to 282.7 °C (dec.) | 68 | – | >1.5 | 83 | – | – | – | – |
| COc1ccccc1-n1c(CSc2ncnc3[nH]cnc23)nc2ccccc2c1=O [Compound D-046, 3-(2-methoxyphenyl)-2-(9H-purin-6-ylsulfanylmethyl)-3H-quinazolin-4-one] | 11 | – | – | – | – | >11 | – | – | – | – | 64 |
| O=c1c2cc(Cl)ccc2nc(CSc2ncnc3[nH]cnc23)n1-c1ccccc1Cl [Compound D-020, 6-Chloro-3-(2-chlorophenyl)-2-(9H-purin-6-ylsulfanylmethyl)-3H-quinazolin-4-one] | >53 | – | 237.1 to 238.2 °C (dec.) | 1.9 | – | >53 | 69 | 69 | – | – | – |
| CC(=O)O.CN1CCN(n2c(CSc3ncnc4[nH]cnc34)nc3ccccc3c2=O)CC1 [Compound D-044, 3-(4-methylpiperazin-1-yl)-2-(9H-purin-6-ylsulfanylmethyl)-3H-quinazolin-4-one, acetate salt] | 15 | 61 | – | 4.2 | – | 25 | – | – | – | 105 | – |
| O=c1c2ccccc2nc(CSc2ncnc3[nH]cnc23)n1-c1cccc(Cl)c1 [Compound D-041, 3-(3-chlorophenyl)-2-(9H-purin-6-ylsulfanylmethyl)-3H-quinazolin-4-one] | >25 | – | – | 4 | – | >25 | 67 | 65 | – | – | – |
| O=c1c2ccccc2nc(CSc2ncnc3[nH]cnc23)n1-c1ccncc1 [Compound D-042, 2-(9H-purin-6-ylsulfanylmethyl)-3-pyridin-4-yl-3H-quinazolin-4-one] | 8 | 25 | – | 3 | – | >32 | 70 | – | – | – | – |
| COc1cc2nc(CSc3ncnc4[nH]cnc34)n(-c3ccccc3Cl)c(=O)c2cc1OC [Compound D-016, 3-(2-Chlorophenyl)-6,7-dimethoxy-2-(9H-purin-6-ylsulfanylmethyl)-3H-quinazolin-4-one] | >3 | – | 160 to 180 °C (dec.) | 40 | – | >2.5 | 91 | 81 | – | – | – |
| COc1ccccc1-n1c(Cn2cnc3c(N)ncnc32)nc2cccc(Cl)c2c1=O [Compound D-033, 2-(6-Aminopurin-9-ylmethyl)-5-chloro-3-(2-methoxyphenyl)-3H-quinazolin-4-one] | – | – | 257 to 257.1 °C | – | – | – | – | – | – | – | – |
| COc1cccc(-n2c(CSc3ncnc4[nH]cnc34)nc3ccccc3c2=O)c1 [Compound D-040, 3-(3-methoxyphenyl)-2-(9H-purin-6-ylsulfanylmethyl)-3H-quinazolin-4-one] | >61 | – | – | 1.7 | – | >61 | 77 | 64 | – | – | – |
